Where a SMILES comes first, the peptide text is derived from it. [ ]: non-standard residue; d: D form. NMeF = CN[C@@H](Cc1ccccc1)C(=O)O; dNMeF = CN[C@H](Cc1ccccc1)C(=O)O; NMeL = CN[C@@H](CC(C)C)C(=O)O; dNMeL = CN[C@H](CC(C)C)C(=O)O; dNMeA = CN[C@H](C)C(=O)O; Aib = CC(C)(N)C(=O)O
Settings: for PAMPA_Papp_Avg (apparent permeability): PAMPA

Row | Compound | PAMPA_Papp_Avg (apparent permeability) [×10⁻⁶ cm/s] | membrane permeability in PAMPA (in words)
1 | CC(C)C[C@@H]1NC(=O)[C@H](CC(C)C)N(C)C(=O)[C@H]2CCCN2C(=O)[C@@H](C)NC(=O)[C@@H](C)N(C)C(=O)[C@@H](C(C)C)NC(=O)[C@@H](CC(C)C)N(C)C(=O)[C@@H]2CCCN2C1=O [Design D8.30, ap*LLP*lv*a] (cyclo(LP[dNMeL][dV][dNMeA][dA][dP][NMeL])) | 4.32 | –
2 | CC(C)C[C@@H]1C(=O)N[C@H](C(C)C)C(=O)N[C@H](C)C(=O)N2CCC[C@@H]2C(=O)N(C)[C@H](CC(C)C)C(=O)N[C@H](C(C)C)C(=O)N[C@H](C)C(=O)N2CCC[C@@H]2C(=O)N1C [Design D8.31, ap*lvap*lv] (cyclo([dA][dP][dNMeL][dV][dA][dP][dNMeL][dV])) | – | membrane permeable
3 | CC[C@H](C)[C@@H]1NC(=O)[C@@H](CC(C)C)N(C)C(=O)[C@@H]2CCCN2C(=O)[C@H](C(C)C)NC(=O)C(C)(C)NC(=O)[C@H](CC(C)C)NC(=O)C(C)(C)NC(=O)[C@@H]2CCCN2C(=O)[C@H]2CCCN2C1=O [Design D9.1, pPBLBVP*lI] (cyclo([Aib]L[Aib]VP[dNMeL]I[dP]P)) | 1.59 | –
4 | CC[C@@H](C)[C@H]1NC(=O)[C@H](CC(C)C)NC(=O)[C@@H](CC(C)C)NC(=O)[C@H](C(C)C)NC(=O)[C@@H](Cc2ccccc2)N(C)C(=O)[C@@H]2CCCN2C(=O)[C@@H](CC(C)C)NC(=O)[C@H](CC(C)C)N(C)C(=O)[C@H]2CCCN2C1=O [Design D9.3, Lip*LlP*fVl] (cyclo(L[dI][dP][NMeL][dL]P[dNMeF]V[dL])) | 2.33 | –
5 | CC[C@H](C)[C@@H]1NC(=O)[C@H](Cc2ccccc2)N(C)C(=O)[C@H](CC(C)C)N(C)C(=O)[C@@H](C(C)C)NC(=O)[C@@H](C)NC(=O)[C@@H]2CCCN2C(=O)[C@@H](CC(C)C)NC(=O)[C@@H]2CCCN2C(=O)[C@H](C)NC1=O [Design D9.6, Pav*L*FIAPl] (cyclo(AP[dL]P[dA][dV][NMeL][NMeF]I)) | 1.63 | –
6 | CC(C)C[C@H]1NC(=O)[C@@H]2CCCN2C(=O)[C@@H](C(C)C)NC(=O)[C@@H](C)N(C)C(=O)[C@@H](C(C)C)NC(=O)[C@@H]2CCCN2C(=O)[C@@H](Cc2ccccc2)NC(=O)[C@H](CC(C)C)N(C)C(=O)[C@@H](C(C)C)NC1=O [Design D9.9, Pv*avPlv*Lf] (cyclo([NMeL][dF]P[dV][dNMeA][dV]P[dL][dV])) | 3.51 | –
7 | CC[C@H](C)[C@@H]1NC(=O)[C@@H](CC(C)C)N(C)C(=O)[C@H](CC(C)C)N(C)C(=O)[C@@H](C)N(C)C(=O)[C@@H](Cc2ccccc2)NC(=O)[C@H](C(C)C)NC(=O)[C@@H](C)NC(=O)[C@@H]2CCCN2C(=O)[C@H]2CCCN2C1=O [Design D9.10, Vf*a*L*lIpPa] (cyclo([dA]V[dF][dNMeA][NMeL][dNMeL]I[dP]P)) | 0.826 | –
8 | CC[C@@H](C)[C@H]1NC(=O)[C@H]2CCCN2C(=O)[C@H]([C@@H](C)CC)NC(=O)[C@H](CC(C)C)N(C)C(=O)[C@H]2CCCN2C(=O)[C@@H]2CCCN2C(=O)[C@H](Cc2ccccc2)N(C)C(=O)[C@H](Cc2ccccc2)NC(=O)[C@H]([C@@H](C)CC)NC1=O [Design D9.13, piIF*FPp*LI] (cyclo(F[NMeF]P[dP][NMeL]I[dP][dI]I)) | 3.37 | –
9 | CC(C)C[C@@H]1NC(=O)[C@H]2CCCN2C(=O)[C@@H](CC(C)C)NC(=O)[C@@H](CC(C)C)NC(=O)[C@@H](CC(C)C)N(C)C(=O)[C@H](C(C)C)NC(=O)[C@@H](C)NC(=O)[C@@H](C)N(C)C(=O)[C@@H]2CCCN2C1=O [Design D9.16, P*aaV*lllpL] (cyclo(LP[dNMeA][dA]V[dNMeL][dL][dL][dP])) | – | significant permeability

— US20260274895A1, “DE NOVO DESIGNED MEMBRANE-TRAVERSING AND ORALLY BIOAVAILABLE MACROCYCLES” (UNIVERSITY OF WASHINGTON, priority 2022, published 2026)
